Results from patent publication US20070037841A1, “Inhibitors” (priority 2003, published 2007).
pIC50: −log10 of the molar value.

What was measured:
RRE [1] = assay: UV absorption spectrum screening of drugs mixed with RRE; format: binding, HIV-1; settings: range of 300 nm to 400 nm; absorption of free compound subtracted or compared
Experimental: Referring to UV absorption spectra of RRE in the presence and absence of naphthyridine dimer, screenings of the drugs was carried out. […] In FIG. 7, the solid line indicates the UV absorption spectrum of RRE alone, and the dotted line indicates a UV absorption spectrum when the absorption of naphthyridine dimer free is subtracted from the absorption of the mixture of naphthyridine dimer and RRE. […] In FIG. 8, the solid line indicates the UV absorption spectrum of RRE alone, and the dotted line indicates a UV absorption spectrum when the absorption of the naphthyridine-azaquinolone hybrid free is subtracted from the absorption of the mixture of the naphthyridine-azaquinolone hybrid and RRE. […] In FIG. 9, the solid line indicates the UV absorption spectrum of RRE alone, and the dotted line indicates a UV absorption spectrum when the absorption of the first quinoline-containing compound free is subtracted from the absorption of the mixture of the first quinoline-containing compound and RRE. […] In FIG. 10, the solid line indicates the UV absorption spectrum of RRE alone, and the dotted line indicates a UV absorption spectrum when the absorption of the second quinoline-containing compound free is subtracted from the absorption of the mixture of the second quinoline-containing compound and RRE. As represented by structural formula (8), the second quinoline-containing compound is obtained by replacing one naphthyridine of naphthyridine dimer with a quinoline incapable of hydrogen-binding to a guanine. [drawing 13] In the present example, comparison was made within a range of 300 nm to 400 nm where no absorption of RRE occurs. Naphthyridine is represented by structural formula (9). Azaquinolone is represented by structural formula (10). […] FIGS. 11-13 respectively illustrate the UV absorption spectra of naphthyridine, azaquinolone, or quinolone alone and the mixture thereof with RRE.

RRE [2] = assay: CD spectrum change of RRE (and RRE-neg control) on binding of drugs; parameters: species or system HIV-1; settings: for binding specificity from CD spectra of RRE versus RRE-neg: RRE-neg has no internal loop (GG and GA mismatch)
Experimental: A change in CD spectrum of RRE due to its binding to each of the drugs was analyzed. In FIG. 14, the solid line indicates a CD spectrum of RRE alone, the dotted line indicates a CD spectrum of a mixture of naphthyridine dimer and RRE, and the dashed line indicates a CD spectrum of a mixture of the naphthyridine-azaquinolone hybrid and RRE. Further, a change in CD spectrum of RRE-neg due to its binding to each of the drugs was analyzed. RRE-neg has no internal loop found in RRE, the internal loop including a GG mismatch and a GA mismatch.

Rev-RRE complex = assay: Fluorescence polarization (anisotropy) inhibition of Rev-RRE complex formation; format: binding, HIV-1; settings: for pIC50: Rev-Fl / RRE, read-out: IC50 value for inhibiting complex formation; for potency of inhibiting Rev-RRE complex formation compared with neomycine B: anisotropy decrease versus inhibitor concentration
Experimental: By using a fluorescence polarization method, it was tested whether Rev-RRE complex formation was inhibited by naphthyridine dimer and the naphthyridine-azaquinolone hybrid.
A greater molecular weight results in a greater polarization degree, i.e., a greater anisotropy.
Naphthyridine dimer, the naphthyridine-azaquinolone hybrid, and neomycine B were used as inhibitors, and anisotropies of each of the inhibitors was measured. […] The horizontal axis indicates the concentration of each of the inhibitors.
An IC50 value of the trinaphthyridine-azaquinolone hybrid used as an inhibitor was obtained by using the fluorescence polarization method. The IC50 value of the trinaphthyridine-azaquinolone hybrid was 0.2 μM. Further, in FIG. 27, the solid line indicates how a CD spectrum of RRE alone was changed, the dotted line indicates how a CD spectrum of RRE was changed when naphthyridine dimer was added to RRE, the dashed line indicates how a CD spectrum of RRE was changed when the trinaphthyridine-azaquinolone hybrid was added to RRE, and […].
Naphthyridine dimer, the naphthyridine-azaquinolone hybrid, the neomycine B, and the trinaphthyridine-azaquinolone hybrid were used as inhibitors, and anisotropies of each of the inhibitors was measured.

RRE [3] = assay: SPR binding of RNA to naphthyridine dimer immobilized on sensor chip; parameters: species or system HIV-1; settings: RRE over immobilized naphthyridine dimer
Experimental: (§1) In a manner shown in FIG. 17, a binding strength of each of RRE, RRE-neg, TAR, and single-stranded RNA (ss RNA) with respect to naphthyridine dimer immobilized on an SPR sensor chip was analyzed. Like RRE, TAR is known as an HIV-RNA target. In FIG. 18, the solid line indicates the binding strength of RRE, the dotted line the binding strength of RRE-neg, the dashed line the binding strength of TAR, and the double-dashed line the binding strength of ssRNA.

RRE-neg = assay: as above; settings: RRE-neg over immobilized naphthyridine dimer
Experimental: Further, a change in CD spectrum of RRE-neg due to its binding to each of the drugs was analyzed. RRE-neg has no internal loop found in RRE, the internal loop including a GG mismatch and a GA mismatch.
as §1

TAR = assay: as above; parameters: species or system HIV; settings: TAR RNA over immobilized naphthyridine dimer
Experimental: as §1

[4] = tested on: single-stranded RNA (ss RNA); assay: as above; settings: ssRNA over immobilized naphthyridine dimer
Experimental: as §1

RRE [5] = assay: UV titration of naphthyridine dimer with RRE; format: binding, HIV-1
Experimental: UV titration was carried out in order to study how naphthyridine dimer bound to RRE.
It was confirmed that as the concentration of RRE increased, the UV absorbance of naphthyridine dimer decreased and the UV absorbance of a complex increased above an isosbestic point.

In the case of `Cc1ccc2ccc(NC(=O)CCNCCC(=O)NCc3ccc4ccc(=O)[nH]c4n3)nc2n1` [naphthyridine-azaquinolone hybrid], the “change in UV absorption spectrum on mixing with RRE” value (shortened to “change in UV absorption spectrum”) (RRE [1]) was “significant changes”, the “change in CD spectrum of RRE when compound added” value (RRE [2]) was “change at 300 nm or above” and the “binding specificity from CD spectra of RRE versus RRE-neg” value (RRE [2]) was “specifically binds to the internal loop of RRE”. For the same compound, the pIC50 (Rev-RRE complex; fluorescence polarization) was 5.70 and the “potency of inhibiting Rev-RRE complex formation compared with neomycine B” value (Rev-RRE complex) was “higher potency”.

With `Cc1ccc2ccc(NC(=O)CCN(CCCCCN(CCC(=O)Nc3ccc4ccc(C)nc4n3)CCC(=O)Nc3ccc4ccc(C)nc4n3)CCC(=O)NCc3ccc4ccc(=O)[nH]c4n3)nc2n1` [trinaphthyridine-azaquinolone hybrid] the pIC50 (Rev-RRE complex; fluorescence polarization) was 6.70 and the “activity relative to neomycine B” value (Rev-RRE complex; fluorescence polarization) was “approximately twenty”.

With `O=C(CCNCCC(=O)Nc1ccc2ccccc2n1)NCc1ccc2ccc(=O)[nH]c2n1` [second quinoline-containing compound] the “change in UV absorption spectrum” value (RRE [1]) was “no remarkable changes”.

For `Cc1ccc2ccc(NC(=O)CCNCCC(=O)Nc3ccc4ccc(C)nc4n3)nc2n1` [naphthyridine dimer], the “change in UV absorption spectrum” value (RRE [1]) was “significant changes”, the “change in CD spectrum of RRE when compound added” value (RRE [2]) was “significant change in the whole spectrum” and the “binding specificity from CD spectra of RRE versus RRE-neg” value (RRE [2]) was “specifically binds to the internal loop of RRE”. The “binding strength (SPR signal)” value (RRE [3]) was “strong signal”, the “binding strength (SPR signal)” value (RRE-neg) was “almost no responses” and the “binding strength (SPR signal)” value (TAR) was “did not bind at all”. For the same compound, the “binding strength (SPR signal)” value [4] was “almost no responses”, the “binding mode to RRE from UV titration” value (RRE [5]; RRE of various concentrations, absorption at 332 nm) was “intercalated into a duplex of RRE” and the “number of naphthyridine dimers forming the complex with RRE” value (RRE [5]; UV titration) was “two”. For the same compound, the pIC50 (Rev-RRE complex; fluorescence polarization) was 5.92 and the “potency of inhibiting Rev-RRE complex formation compared with neomycine B” value (Rev-RRE complex) was “higher potency”.

Work on `NCC1OC(OC2C(CO)OC(OC3C(O)C(N)CC(N)C3OC3OC(CN)C(O)C(O)C3N)C2O)C(N)C(O)C1O` (stereo not shown) [neomycine B, reference compound] yielded a pIC50 (Rev-RRE complex; fluorescence polarization) of 5.40.

For `NCCC(=O)Nc1ccc2ccccc2n1`, the “change in UV absorption spectrum” value (RRE [1]) was “almost no changes”.

In the case of `Cc1ccc2ccc(NC(=O)CCNCCC(=O)Nc3ccc4ccccc4n3)nc2n1` [first quinoline-containing compound], the “change in UV absorption spectrum” value (RRE [1]) was “no remarkable changes”.
